Assay results published in US11833211B2, “Methods of suppression and treatment of disease comprising administering bicycle peptide ligands specific for EphA2” (BicycleTx Limited, priority 2017, dated 2023).

Assays:
rat EphA2 = target: T1, rat EphA2 (Rattus norvegicus, UniProt D3ZBN3); assay: Fluorescence polarisation competition binding, alternative protocol (Study 2)
T1 construct: polyHis (C); made in house

mouse EphA2 = target: T2, mouse EphA2 (Mus musculus, UniProt Q03145); format: binding
T2 construct: EphA2 (Ecto)

human EphA2 = target: T3, human EphA2 (Homo sapiens, UniProt P29317); assay: Fluorescence polarisation competition binding assay (Study 1)
T3 construct: EphA2 (Ecto); polyHis (C); purchased R&D systems (or In-house)

PC-3 xenograft = assay: Study 8: in vivo efficacy in PC-3 xenograft; parameters: species or system Mus Musculus; conditions: 15 mg/kg

T2 sequence (Q03145 26-538 limits assumed): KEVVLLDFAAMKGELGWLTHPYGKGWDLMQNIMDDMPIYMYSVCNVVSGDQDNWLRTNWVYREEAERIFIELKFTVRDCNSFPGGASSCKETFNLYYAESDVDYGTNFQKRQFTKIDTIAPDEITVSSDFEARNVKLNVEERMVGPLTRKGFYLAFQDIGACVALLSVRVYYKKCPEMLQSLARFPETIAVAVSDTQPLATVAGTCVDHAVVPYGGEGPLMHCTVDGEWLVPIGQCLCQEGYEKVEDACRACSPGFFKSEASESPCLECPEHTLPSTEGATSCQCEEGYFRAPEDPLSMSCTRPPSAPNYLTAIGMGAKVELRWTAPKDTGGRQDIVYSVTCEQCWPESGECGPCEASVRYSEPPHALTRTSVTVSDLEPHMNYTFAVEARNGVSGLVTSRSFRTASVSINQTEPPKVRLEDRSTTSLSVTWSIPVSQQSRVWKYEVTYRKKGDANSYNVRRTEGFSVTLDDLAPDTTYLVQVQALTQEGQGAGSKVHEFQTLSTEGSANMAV
T1 sequence (D3ZBN3 27-205): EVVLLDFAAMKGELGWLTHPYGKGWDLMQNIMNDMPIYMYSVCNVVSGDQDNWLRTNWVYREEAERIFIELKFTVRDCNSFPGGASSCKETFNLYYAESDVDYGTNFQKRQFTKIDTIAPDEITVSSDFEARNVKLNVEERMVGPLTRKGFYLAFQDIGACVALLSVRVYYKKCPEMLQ
T3 sequence (P29317 24-537 limits assumed): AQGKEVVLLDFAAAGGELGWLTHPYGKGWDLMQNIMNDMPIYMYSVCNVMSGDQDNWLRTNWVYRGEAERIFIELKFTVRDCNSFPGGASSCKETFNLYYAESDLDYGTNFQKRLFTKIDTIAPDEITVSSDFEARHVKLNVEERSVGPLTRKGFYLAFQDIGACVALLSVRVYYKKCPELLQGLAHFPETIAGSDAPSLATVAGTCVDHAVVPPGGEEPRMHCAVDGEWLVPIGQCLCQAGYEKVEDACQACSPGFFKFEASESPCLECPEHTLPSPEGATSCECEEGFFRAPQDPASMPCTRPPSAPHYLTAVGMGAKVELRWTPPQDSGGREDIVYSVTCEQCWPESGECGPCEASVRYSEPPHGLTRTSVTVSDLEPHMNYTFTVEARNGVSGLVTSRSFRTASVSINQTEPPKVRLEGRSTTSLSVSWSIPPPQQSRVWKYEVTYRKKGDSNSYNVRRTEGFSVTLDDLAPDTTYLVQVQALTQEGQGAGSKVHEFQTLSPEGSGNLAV

Compound: (β-Ala)-Sar10-A(HArg)D-Ci(HyP)LVNPLCiiLHP(D-Asp)W(HArg)Ciii [BCY6099]
- affinity to rat EphA2 (in words) (rat EphA2): high affinity
- affinity to mouse EphA2 (in words) (mouse EphA2): high affinity

Compound: COc1cc2cc(c1Cl)N(C)C(=O)C[C@@H](OC(=O)[C@@H](C)N(C)C(=O)CCSSC(C)CCC(=O)NCCC(=O)N(C)CC(=O)N(C)CC(=O)N(C)CC(=O)N(C)CC(=O)N(C)CC(=O)N(C)CC(=O)N(C)CC(=O)N(C)CC(=O)N(C)CC(=O)N(C)CC(=O)N[C@@H](C)C(=O)N[C@@H](CCCCNC(=N)N)C(=O)N[C@@H](CC(=O)O)C(=O)N[C@H]1CSCCC(=O)N3CN4CN(C3)C(=O)CCSC[C@H](NC(=O)[C@H](CC(C)C)NC(=O)[C@@H]3CCCN3C(=O)[C@H](CC(N)=O)NC(=O)[C@H](C(C)C)NC(=O)[C@H](CC(C)C)NC(=O)[C@@H]3C[C@@H](O)CN3C1=O)C(=O)N[C@@H](CC(C)C)C(=O)N[C@@H](Cc1c[nH]cn1)C(=O)N1CCC[C@H]1C(=O)N[C@H](CC(=O)O)C(=O)N[C@@H](Cc1c[nH]c3ccccc13)C(=O)N[C@@H](CCCCNC(=N)N)C(=O)N[C@H](C(N)=O)CSCCC4=O)[C@@]1(C)O[C@@H]1[C@@H](C)[C@H]1C[C@](O)(NC(=O)O1)C(OC)/C=C/C=C(\C)C2 (stereo partly drawn) [BCY6028]
- competition binding in the EphA2 competition binding assay (in words) (human EphA2): excellent competition binding

Compound: CC(=O)O[C@@]12CO[C@@H]1C[C@H](O)[C@@]1(C)C(=O)[C@H](O)C3=C(C)[C@@H](OC(=O)[C@H](O)[C@@H](NC(=O)OC(C)(C)C)c4ccccc4)C[C@@](O)([C@@H](OC(=O)c4ccccc4)[C@H]21)C3(C)C [Docetaxel]
- body weight (PC-3 xenograft; after the first dosing): severe animal body weight loss
- anti-tumor activity (in words) (PC-3 xenograft; qw): significant anti-tumor activity
- tumor relapse after ceasing the treatment (PC-3 xenograft; qw): obvious tumor relapse
